According to PubChem BioAssay AID1259407 (Chemical Carcinogenesis Research Information System (CCRIS), 2018):
Activity calls are given as the source filed them. The rule behind the calls is not given here.

System: CCRIS mutagenicity, Ames/micronucleus/aberration tests
Experiment: CCRIS mutagenicity studies

CN(C)N=O
mutagenic call (End Point: IN VITRO CHROMOSOMAL ABERRATIONS, Test System: CHL/IU CELLS, Metabolic Activation: RAT, LIVER, S-9, PHENOBARBITAL AND 5,6-BENZOFLAVONE): active; positive (structural changes) | mutagenic call (End Point: IN VITRO CHROMOSOMAL ABERRATIONS, Test System: CHO CELLS, Metabolic Activation: NONE): inactive; negative | mutagenic call (End Point: IN VITRO MICRONUCLEUS, Test System: CHL/IU CELLS, Metabolic Activation: RAT, LIVER, S-9, PHENOBARBITAL AND 5,6-BENZOFLAVONE): active; positive | mutagenic call (End Point: IN VIVO MICRONUCLEUS, Test System: HEPATOCYTES, Species: RAT, Strain/Sex: FISHER 344 OR SD/MALE, Route: ORAL OR IP): active; positive | mutagenic call (End Point: IN VIVO MICRONUCLEUS, Test System: PERIPHERAL BLOOD RETICULOCYTES, Species: RAT, Strain/Sex: FISHER 344 OR SD/MALE, Route: ORAL OR IP): inactive; negative | mutagenic call (End Point: In vivo micronucleus, Test System: Liver, Species: Mouse, Strain/Sex: Big Blue/Male, Route: Oral): active; positive for laci mutation frequency in liver; high percentage of g:c to t:a t | mutagenic call (End Point: In vivo micronucleus, Test System: Micronucleated hepatocytes, Species: Rat, Strain/Sex: F344/Male, Route: Oral): active; positive (p<0.01) | mutagenic call (Test System: AMES SALMONELLA TYPHIMURIUM, Strain/Indicator: NM2000, Metabolic Activation: RAT, LIVER, S-9, ISONIAZID, Method: PREINCUBATION): active; positive | mutagenic call (Test System: AMES SALMONELLA TYPHIMURIUM, Strain/Indicator: NM2009, Metabolic Activation: RAT, LIVER, S-9, ISONIAZID, Method: PREINCUBATION): active; positive | mutagenic call (Test System: AMES SALMONELLA TYPHIMURIUM, Strain/Indicator: TA92, Metabolic Activation: MOUSE, LIVER, S-10, Method: PREINCUBATION): active; positive | mutagenic call (Test System: AMES SALMONELLA TYPHIMURIUM, Strain/Indicator: TA97, Metabolic Activation: NONE, Method: STANDARD PLATE): inactive; negative | mutagenic call (Test System: AMES SALMONELLA TYPHIMURIUM, Strain/Indicator: TA97, Metabolic Activation: RAT, LIVER, S-9, AROCLOR 1254, Method: STANDARD PLATE): inactive; negative | mutagenic call (Test System: AMES SALMONELLA TYPHIMURIUM, Strain/Indicator: TA98, Metabolic Activation: NONE, Method: STANDARD PLATE): inactive; negative | mutagenic call (Test System: AMES SALMONELLA TYPHIMURIUM, Strain/Indicator: TA98, Metabolic Activation: RAT, LIVER, S-9, AROCLOR 1254, Method: STANDARD PLATE): inactive; negative | mutagenic call (Test System: AMES SALMONELLA TYPHIMURIUM, Strain/Indicator: TA100, Metabolic Activation: HAMSTER, LIVER, S-9, AROCLOR 1254, NADPH GENERATING SYSTEM, CYTOSOL, Method: PREINCUBATION): active; positive | mutagenic call (Test System: AMES SALMONELLA TYPHIMURIUM, Strain/Indicator: TA100, Metabolic Activation: HAMSTER, LIVER, S-9, Method: PREINCUBATION): active; positive | mutagenic call (Test System: AMES SALMONELLA TYPHIMURIUM, Strain/Indicator: TA100, Metabolic Activation: HUMAN, LIVER, S-9, Method: PREINCUBATION): inactive; negative | mutagenic call (Test System: AMES SALMONELLA TYPHIMURIUM, Strain/Indicator: TA100, Metabolic Activation: MICROSOMES, CYTOSOL, Method: PREINCUBATION): active; positive | mutagenic call (Test System: AMES SALMONELLA TYPHIMURIUM, Strain/Indicator: TA100, Metabolic Activation: MOUSE, INTACT UROTHELIAL CELLS, Method: FLUCTUATION TEST): active; positive | mutagenic call (Test System: AMES SALMONELLA TYPHIMURIUM, Strain/Indicator: TA100, Metabolic Activation: MOUSE, LIVER, S-9, PHENOBARBITAL AND BETA-NAPHTHOFLAVONE, Method: PREINCUBATION): active; positive | mutagenic call (Test System: AMES SALMONELLA TYPHIMURIUM, Strain/Indicator: TA100, Metabolic Activation: MOUSE, LIVER, S-9, PHENOBARBITAL, BETA-NAPHTHOFLAVONE, ISOSAFROLE, ETHANOL, PREGNENOLONE AND 16ALPHA-CARBONITRILE, Method: PREINCUBATION): active; positive | mutagenic call (Test System: AMES SALMONELLA TYPHIMURIUM, Strain/Indicator: TA100, Metabolic Activation: NONE, Method: PREINCUBATION): inactive; negative | mutagenic call (Test System: AMES SALMONELLA TYPHIMURIUM, Strain/Indicator: TA100, Metabolic Activation: NONE, Method: STANDARD PLATE): inactive; negative | mutagenic call (Test System: AMES SALMONELLA TYPHIMURIUM, Strain/Indicator: TA100, Metabolic Activation: PIG, LIVER, S-9, Method: PREINCUBATION): inactive; negative | mutagenic call (Test System: AMES SALMONELLA TYPHIMURIUM, Strain/Indicator: TA100, Metabolic Activation: RABBIT, LIVER, S-9, Method: STANDARD PLATE): inactive; negative | mutagenic call (Test System: AMES SALMONELLA TYPHIMURIUM, Strain/Indicator: TA100, Metabolic Activation: RABBIT, LUNG, S-9, Method: STANDARD PLATE): inactive; negative | mutagenic call (Test System: AMES SALMONELLA TYPHIMURIUM, Strain/Indicator: TA100, Metabolic Activation: RABBIT, NASAL, S-9, Method: STANDARD PLATE): inactive; negative | mutagenic call (Test System: AMES SALMONELLA TYPHIMURIUM, Strain/Indicator: TA100, Metabolic Activation: RAT, INTACT UROTHELIAL CELLS, Method: FLUCTUATION TEST): active; positive | mutagenic call (Test System: AMES SALMONELLA TYPHIMURIUM, Strain/Indicator: TA100, Metabolic Activation: RAT, LIVER, S-9, AROCLOR 1254, (PREGNANT MARE SERUM), Method: PREINCUBATION): active; positive | mutagenic call (Test System: AMES SALMONELLA TYPHIMURIUM, Strain/Indicator: TA100, Metabolic Activation: RAT, LIVER, S-9, AROCLOR 1254, Method: PREINCUBATION): active; positive | mutagenic call (Test System: AMES SALMONELLA TYPHIMURIUM, Strain/Indicator: TA100, Metabolic Activation: RAT, LIVER, S-9, AROCLOR 1254, Method: STANDARD PLATE): inactive; negative | mutagenic call (Test System: AMES SALMONELLA TYPHIMURIUM, Strain/Indicator: TA100, Metabolic Activation: RAT, LIVER, S-9, CYCLOHEXANOL, Method: PREINCUBATION): active; positive | mutagenic call (Test System: AMES SALMONELLA TYPHIMURIUM, Strain/Indicator: TA100, Metabolic Activation: RAT, LIVER, S-9, ETHANOL, Method: PREINCUBATION): active; positive | mutagenic call (Test System: AMES SALMONELLA TYPHIMURIUM, Strain/Indicator: TA100, Metabolic Activation: RAT, LIVER, S-9, KC500 OR PHENOBARBITAL, Method: LIQUID SUSPENSION): active; positive | mutagenic call (Test System: AMES SALMONELLA TYPHIMURIUM, Strain/Indicator: TA100, Metabolic Activation: RAT, LIVER, S-9, N-BENZYLIMIDAZOLE, Method: PREINCUBATION): active; positive | mutagenic call (Test System: AMES SALMONELLA TYPHIMURIUM, Strain/Indicator: TA100, Metabolic Activation: RAT, LIVER, S-9, PHENOBARBITAL, Method: PREINCUBATION): active; positive | mutagenic call (Test System: AMES SALMONELLA TYPHIMURIUM, Strain/Indicator: TA100, Metabolic Activation: RAT, LUNG, S-9, Method: STANDARD PLATE): inactive; negative | mutagenic call (Test System: AMES SALMONELLA TYPHIMURIUM, Strain/Indicator: TA100, Metabolic Activation: RAT, NASAL, S-9, Method: STANDARD PLATE): inactive; negative | mutagenic call (Test System: AMES SALMONELLA TYPHIMURIUM, Strain/Indicator: TA100, Metabolic Activation: S-9, Method: PREINCUBATION): inactive; negative | mutagenic call (Test System: AMES SALMONELLA TYPHIMURIUM, Strain/Indicator: TA100, Metabolic Activation: TOBACCO CELLS, Method: PREINCUBATION): inactive; negative | mutagenic call (Test System: AMES SALMONELLA TYPHIMURIUM, Strain/Indicator: TA104, Metabolic Activation: HAMSTER, LIVER, S-9, AROCLOR 1254, NADPH GENERATING SYSTEM, CYTOSOL, Method: PREINCUBATION): active; positive | mutagenic call (Test System: AMES SALMONELLA TYPHIMURIUM, Strain/Indicator: TA104, Metabolic Activation: HAMSTER, LIVER, S-9, AROCLOR 1254, Method: PREINCUBATION): active; positive | mutagenic call (Test System: AMES SALMONELLA TYPHIMURIUM, Strain/Indicator: TA104, Metabolic Activation: HAMSTER, LIVER, S-9, Method: PREINCUBATION): active; positive | mutagenic call (Test System: AMES SALMONELLA TYPHIMURIUM, Strain/Indicator: TA104, Metabolic Activation: MICROSOMES, CYTOSOL, Method: PREINCUBATION): active; positive | mutagenic call (Test System: AMES SALMONELLA TYPHIMURIUM, Strain/Indicator: TA104, Metabolic Activation: RAT, LIVER, S-9, AROCLOR 1254, Method: PREINCUBATION): active; positive | mutagenic call (Test System: AMES SALMONELLA TYPHIMURIUM, Strain/Indicator: TA104, Metabolic Activation: RAT, LIVER, S-9, Method: PREINCUBATION): active; positive | mutagenic call (Test System: AMES SALMONELLA TYPHIMURIUM, Strain/Indicator: TA1530, Metabolic Activation: RAT, LIVER, S-9, AROCLOR 1254, Method: PREINCUBATION): active; positive | mutagenic call (Test System: AMES SALMONELLA TYPHIMURIUM, Strain/Indicator: TA1530, Metabolic Activation: RAT, LIVER, S-9, Method: STANDARD PLATE): active; positive | mutagenic call (Test System: AMES SALMONELLA TYPHIMURIUM, Strain/Indicator: TA1535 (PSK1002), Metabolic Activation: RAT, LIVER, S-9, ISONIAZID, Method: PREINCUBATION): active; positive | mutagenic call (Test System: AMES SALMONELLA TYPHIMURIUM, Strain/Indicator: TA1535, Metabolic Activation: NONE, Method: PREINCUBATION): inactive; negative | mutagenic call (Test System: AMES SALMONELLA TYPHIMURIUM, Strain/Indicator: TA1535, Metabolic Activation: RAT LIVER S-9, ETHANOL (4%), Method: PREINCUBATION): inactive; negative | mutagenic call (Test System: AMES SALMONELLA TYPHIMURIUM, Strain/Indicator: TA1535, Metabolic Activation: RAT, LIVER, HEPATOCYTES, Method: PREINCUBATION): active; positive | mutagenic call (Test System: AMES SALMONELLA TYPHIMURIUM, Strain/Indicator: TA1535, Metabolic Activation: RAT, LIVER, MICROSOMES, KANECHLOR 500, Method: PREINCUBATION): active; positive | mutagenic call (Test System: AMES SALMONELLA TYPHIMURIUM, Strain/Indicator: TA1535, Metabolic Activation: RAT, LIVER, S-9, AROCLOR 1254, (PREGNANT MARE SERUM), Method: PREINCUBATION): active; positive | mutagenic call (Test System: AMES SALMONELLA TYPHIMURIUM, Strain/Indicator: TA1535, Metabolic Activation: RAT, LIVER, S-9, AROCLOR 1254, Method: PREINCUBATION): active; positive | mutagenic call (Test System: AMES SALMONELLA TYPHIMURIUM, Strain/Indicator: TA1535, Metabolic Activation: RAT, LIVER, S-9, AROCLOR, Method: PREINCUBATION): active; positive | mutagenic call (Test System: AMES SALMONELLA TYPHIMURIUM, Strain/Indicator: TA1535, Metabolic Activation: RAT, LIVER, S-9, KC500 OR PHENOBARBITAL, Method: LIQUID SUSPENSION): active; positive | mutagenic call (Test System: AMES SALMONELLA TYPHIMURIUM, Strain/Indicator: TA1535, Metabolic Activation: RAT, LIVER, S-9, SODIUM PHENOBARBITONE, Method: PREINCUBATION): active; positive | mutagenic call (Test System: AMES SALMONELLA TYPHIMURIUM, Strain/Indicator: TA1535, Metabolic Activation: RAT, LIVER, S-9, Method: PREINCUBATION): inactive; negative | mutagenic call (Test System: AMES SALMONELLA TYPHIMURIUM, Strain/Indicator: TA1535, Metabolic Activation: S-9, Method: PREINCUBATION): active; positive
